Test results taken from article PMC7000730, “CAPA neuropeptides and their receptor form an anti-diuretic hormone signaling system in the human disease vector, Aedes aegypti” (Scientific Reports, 2020).
“Also recorded” adds a separate entry of the source. Structures can show the parent of a compound that is named as a salt. Where two headings read alike, the source gives them in different places. Non-standard residues stand in square brackets, D forms with d. Residues, ends and D or L forms follow the SMILES beside them. No end group written: not given here. pGlu = O=C1CC[C@@H](C(=O)O)N1

Legend:
[1] = molecular target: T1, A. aegypti CAPA receptor (CAPAr, anti-diuretic hormone receptor) (Aedes aegypti, UniProt A0A7D5D2Z2); test: Heterologous receptor functional activation bioluminescence assay (CHO-K1 aequorin); format: cell-based; details: for CAPAr activation (in words): calcium-based luminescence
T1 sequence (A0A7D5D2Z2 1-712): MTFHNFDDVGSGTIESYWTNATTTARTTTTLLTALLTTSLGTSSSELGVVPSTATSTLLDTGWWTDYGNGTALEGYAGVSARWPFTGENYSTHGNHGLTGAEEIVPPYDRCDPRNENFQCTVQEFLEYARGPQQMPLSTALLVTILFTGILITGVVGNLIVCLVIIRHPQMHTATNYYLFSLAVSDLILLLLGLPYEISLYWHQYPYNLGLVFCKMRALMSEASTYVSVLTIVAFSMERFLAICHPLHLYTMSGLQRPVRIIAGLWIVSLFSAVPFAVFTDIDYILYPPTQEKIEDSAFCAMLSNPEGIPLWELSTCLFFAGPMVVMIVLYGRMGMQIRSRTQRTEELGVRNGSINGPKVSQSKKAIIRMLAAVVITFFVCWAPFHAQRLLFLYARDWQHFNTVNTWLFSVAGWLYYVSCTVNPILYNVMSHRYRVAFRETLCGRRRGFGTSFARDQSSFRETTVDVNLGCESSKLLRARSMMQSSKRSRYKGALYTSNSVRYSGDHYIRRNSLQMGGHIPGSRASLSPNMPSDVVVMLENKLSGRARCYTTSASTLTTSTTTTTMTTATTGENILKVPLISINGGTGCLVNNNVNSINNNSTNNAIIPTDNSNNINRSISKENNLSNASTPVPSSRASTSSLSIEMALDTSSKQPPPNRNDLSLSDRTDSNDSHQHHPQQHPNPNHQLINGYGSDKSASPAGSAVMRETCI
Protocol: (B) Raw luminescent response following application of each CAPA gene-derived neuropeptide and representative neuropeptides belonging to several insect families, each tested at 10 μM. For peptide sequence information and species origin, see Table S3. […] Data represent the mean ± standard error (n = 3).
The open reading frame of the cloned A. aegypti CAPAr was inserted into pcDNA3.1+ mammalian expression vector following procedures described previously[60],[92],[93]. Using a recombinant CHO-K1 cell line stably expressing aequorin[59], A. aegypti CAPAr was transiently expressed following growth and transfection conditions as reported recently. Cells were harvested for the functional assay at 48 hours post-transfection by detaching cells from the culture flask using 5 mM EDTA in Dulbecco’s PBS (DPBS; Wisent Corp., St. Bruno, QC) and later cells were resuspended at a concentration of 10^6–10^7 cells/mL in assay media and incubated with coelenterazine h as described previously. Prior to running the functional assay, cells were diluted 10-fold in assay media and left to incubate for one additional hour. Several endogenous as well as other insect neuropeptides representing a variety of neuropeptide families (see Table S2) were tested by preparing serial dilutions of each peptide in assay media. All peptides were commercially synthesized at a purity of >90% (Genscript, Piscataway, NJ) and 1 mM stock solutions were prepared by dissolving 1 mg of each peptide in water or DMSO as appropriate based on specific peptide characteristics. Recombinant CHO-K1 cells expressing the A. aegypti CAPAr were loaded into each well of multi-well plate using an automated injector module linked to a Synergy 2 Multi Mode Microplate Reader (BioTek, Winooski, VT) which measured kinetic luminescent response from each well for 20 sec immediately following cell loading onto the different peptides at various doses. Data was compiled in Microsoft Excel and analyzed in GraphPad Prism 8.0 (GraphPad Software, San Diego, CA).
Table S2. List and primary structure of several insect neuropeptides tested for functional activation of the mosquito anti-diuretic hormone (CAPA) receptor using heterologous bioassay.

[2] = test system: isolated MTs of adult female A. aegypti (diuretic hormone-stimulated fluid secretion); test: Malpighian tubule fluid secretion assay (modified Ramsay assay); set-up: species or system Aedes aegypti; details: for effect of inhibitor on inhibition by AedaeCAPA-1 and cGMP, 5HT-stimulated MTs: 5HT 100 nmol l^-1, AedaeCAPA-1 1 fmol l^-1 or cGMP (8 bromo-cGMP) 100 nmol l^-1, L-NAME 2 µmol l^-1 or KT5823 5 µmol l^-1, 60 min
Protocol: To further understand the anti-diuretic signaling pathway involving the CAPA neuroendocrine system, pharmacological blockers, including inhibitors of NOS (L-NAME) and PKG (KT5823), were tested against diuretic hormone-stimulated MTs alone and together with either AedaeCAPA-1 or cGMP.
Figure 5 Effect of a nitric oxide synthase (NOS) inhibitor (L-NAME) on the anti-diuretic activity of AedaeCAPA-1 and cGMP in DromeDH31-stimulated A. aegypti MTs. The NOS inhibitor, L-NAME, was applied against (A) DromeDH31- and (B) 5HT-stimulated MTs alone or in the presence of either AedaeCAPA-1 or cGMP. Secretion rates are presented as mean ± SEM, n = 17–22.
Figure 6 Effect of a protein kinase G (PKG) inhibitor (KT5823) on the anti-diuretic activity of AedaeCAPA-1 and cGMP in DromeDH31-stimulated A. aegypti MTs. The PKG inhibitor, KT5823, was applied against (A) DromeDH31- and (B) 5HT-stimulated MTs alone or in the presence of either AedaeCAPA-1 or cGMP. Secretion rates are presented as mean ± SEM, n = 16–25.
In order to determine fluid secretion rates, a modified Ramsay secretion assay[85] was performed on isolated MTs of 3–6 day old adult female A. aegypti, as reported recently. Tissue dissections were performed under physiological saline prepared as described previously[86] diluted 1:1 with Schneider’s Insect Medium (Sigma-Aldrich, Oakville, ON). Individual MTs were removed and transferred to a Sylgard-lined Petri dish containing 20 μl saline bathing droplets immersed in hydrated mineral oil to prevent evaporation. The proximal end of the MT was removed from the bathing saline and wrapped around a Minuten pin to allow for secretion measurements. Dosages of 25 nmol l^−1 DromeDH31[22] or 100 nmol l^−1 5HT[97],[98] alone or in combination with 1 fmol l^−1 AedaeCAPA-1[37] were applied to the isolated MTs as previously described. […] To investigate the effects of the pharmacological blockers, a nitric oxide synthase (NOS) inhibitor, Nω-Nitro-L-arginine methyl ester hydrochloride (L-NAME), and protein kinase G (PKG) inhibitor, KT5823, were used against 5-HT- and DH31-stimulated MTs. Dosages of 2 µmol l^−1 L-NAME (manufacturer’s recommended dose) and 5 µmol l^−1 KT5823[36] were applied to the MTs. The inhibitors were treated in conjunction with 1 fmol l^−1 AedaeCAPA-1 and/or 100 nmol l^−1 cyclic guanosine monophosphate, 8 bromo-cGMP (cGMP)[37] (Sigma-Aldrich, Oakville, ON, Canada). Unstimulated controls consisted of tubules bathed in physiological saline with no diuretic application. Following a 60-minute incubation period, the size of the secreted droplet was measured using an eyepiece micrometer and fluid secretion rate (FSR) was calculated as described previously. […]

[3] = test system: isolated MTs of adult female A. aegypti (diuretic hormone-stimulated fluid secretion); details: ref [37]; cited from earlier work
Source text: The influx of Ca^2+ through these channels activates NOS, causing the production of NO, which subsequently activates guanylate cyclase to increase levels of cGMP in the MTs[44]. Ultimately, the activation of the NO/cGMP pathway stimulates the apical V-type H^+-A ...

[4] = CHO-K1 cells stably expressing aequorin, A. aegypti CAPAr transiently expressed (48 h post-transfection), coelenterazine h, kinetic luminescence for 20 sec, dose-response, n = 3, read-out: EC50 on CAPAr
[5] = n = 17–22 (L-NAME), 16–25 (KT5823)
[6] = CHO-K1-aequorin cells expressing CAPAr, luminescence, tested up to 10 μM, read-out: EC50 on CAPAr (NA = no detectable activity)

For `CC(C)C[C@H](NC(=O)CNC(=O)[C@@H]1CCC(=O)N1)C(=O)N[C@H](C(=O)N1CCC[C@H]1C(=O)N[C@@H](Cc1ccccc1)C(=O)N1CCC[C@H]1C(=O)N[C@@H](CCCNC(=N)N)C(=O)N[C@H](C(N)=O)C(C)C)C(C)C` [CAPA2] ([pGlu]GLVPFPRV-NH2), the “CAPAr activation (in words)” value ([1]; CHO-K1-aequorin cells expressing CAPAr) was “potently activate this receptor”, the EC50 [1, 4] was 0.00562 µM and the “raw luminescent response at 10 μM (in words)” value ([1]; each peptide at 10 μM, vs BSA vehicle control, one-way ANOVA, Tukey, p < 0.01, n = 3) was “no difference in response was observed between the two endogenous CAPA neuropeptides”.

For `COC(=O)[C@@]1(OC)C[C@H]2O[C@]1(C)n1c3ccccc3c3c4c(c5c6ccccc6n2c5c31)C(=O)N(C)C4` [KT5823], the “effect of inhibitor on inhibition by AedaeCAPA-1 and cGMP, 5HT-stimulated MTs” value [2, 5] was “the inhibitory activity of AedaeCAPA-1 and cGMP on 5HT-stimulated tubules was abolished”, the “effect of inhibitor on inhibition of both DH31- and 5HT-stimulated diuresis” value ([2]; AedaeCAPA-1 1 fmol l^-1 or cGMP 100 nmol l^-1, KT5823 5 µmol l^-1, 60 min) was “the inhibition of both DH31- and 5HT stimulated diuresis by AedaeCAPA-1 and cGMP were sensitive to the PKG inhibitor, KT5823” and the “effect of inhibitor on inhibition by both AedaeCAPA-1 and cGMP, DH31-stimulated MTs” value ([2]; DromeDH31 25 nmol l^-1, AedaeCAPA-1 1 fmol l^-1 or cGMP (8 bromo-cGMP) 100 nmol l^-1, KT5823 5 µmol l^-1, 60 min, n = 16–25) was “abolished the inhibitory effect of both cGMP and AedaeCAPA-1; also recorded: abolished the anti-diuretic activity of both AedaeCAPA-1 and cGMP, resulting in normal DH31-induced diuresis”.

With `COC(=O)[C@@H](N)CCCNC(N)=N[N+](=O)[O-]` [L-NAME, Nω-Nitro-L-arginine methyl ester hydrochloride] the “effect of inhibitor on inhibition by AedaeCAPA-1 and cGMP, 5HT-stimulated MTs” value [2, 5] was “neither AedaeCAPA-1 nor cGMP inhibition are influenced by L-NAME; also recorded: L-NAME had no influence on the anti-diuretic activity of AedaeCAPA-1 in 5HT-stimulated MTs”, the “effect of inhibitor on inhibition by AedaeCAPA-1, DH31-stimulated MTs” value ([2]; DromeDH31 25 nmol l^-1, AedaeCAPA-1 1 fmol l^-1, L-NAME 2 µmol l^-1 or KT5823 5 µmol l^-1, 60 min, n = 17–22 (L-NAME), 16–25 (KT5823)) was “the inhibitory effect of AedaeCAPA-1 was abolished; also recorded: AedaeCAPA-1 mediated inhibition of DH31-stimulated MTs was mitigated in the presence of L-NAME, reducing the anti-diuretic effects observed with AedaeCAPA-1” and the “effect of inhibitor on inhibition by cGMP, DH31-stimulated MTs” value ([2]; DromeDH31 25 nmol l^-1, cGMP (8 bromo-cGMP) 100 nmol l^-1, L-NAME 2 µmol l^-1 or KT5823 5 µmol l^-1, 60 min, n = 17–22 (L-NAME), 16–25 (KT5823)) was “no influence on the inhibitory effect of cGMP; also recorded: did not alter the inhibitory effects of exogenous cGMP”.

In the case of `Nc1nc2c(nc(Br)n2[C@@H]2O[C@@H]3COP(=O)(O)O[C@H]3[C@H]2O)c(=O)[nH]1` [cGMP, cyclic guanosine monophosphate, 8 bromo-cGMP], the “inhibition of fluid secretion rate (earlier work)” value [3] is listed as “considerably inhibits fluid secretion rate”.

In the case of AGNSGANSGMWFGPRL-NH2 [PK1], the “luminescent response as activity compared to either CAPA peptide” value ([1]; 10 μM (saturating dose), n = 3) is reported as ~ 20%, the “potency compared to the canonical CAPA ligands” value ([1]; CAPAr in CHO-K1-aequorin cells) is reported as “over five orders of magnitude lower compared to the canonical CAPA ligands” and the “CAPAr activation (in words)” value ([1]; CHO-K1-aequorin cells expressing CAPAr, listed as Aedae-PK1) is reported as “low agonist activity”. For the same compound, the “CAPAr activation (in words)” value ([1]; CHO-K1-aequorin cells expressing CAPAr, listed as pyrokinin 1-related peptide) was “very poor activity compared to the two CAPA peptides”, the “CAPAr activation (in words)” value ([1]; CHO-K1-aequorin cells expressing CAPAr, listed as pyrokinin-1) was “a significantly higher concentration of pyrokinin-1 was needed to achieve even low level CAPAr activation” and the EC50 ([1]; CHO-K1 cells stably expressing aequorin, A. aegypti CAPAr transiently expressed (48 h post-transfection), coelenterazine h, kinetic luminescence for 20 sec, tested up to 10 μM, read-out: EC50 on CAPAr) was > 10 µM.

With AWNSLHGGW-NH2 [MIP-7] the EC50 [1, 6] was > 10 µM.

Work on GPTVGLFAFPRV-NH2 [CAPA1] yielded an EC50 [1, 4] of 0.00676 µM.

For GYRKPPFNGSIF-NH2 [SIFa], the EC50 [1, 6] was > 10 µM.

In the case of KAVRSPSLRLRF-NH2 [sNPF], the EC50 [1, 6] is reported as > 10 µM.

In the case of NSVVLGKKQRFHSWG-NH2 [kinin], the EC50 [1, 6] is reported as > 10 µM.

In the case of NTVNFSPRL-NH2 [PK2-1], the EC50 [1, 6] is reported as > 10 µM.

In the case of SALDKNFMRF-NH2 [FMRFa-1], the EC50 [1, 6] is reported as > 10 µM.

In the case of SPPFAPRL-NH2 [PK2-2], the EC50 [1, 6] is reported as > 10 µM.
